Source: PubChem BioAssay (NCI)
Several values for one entry are separate records, joined by “and”; a condition that tells them apart may be missing. Identical values can stand only once.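 Following 48 hours of exposure in 96-well plates, responses at five concentrations were used to interpolate endpoints linearly. The concentration for 50% growth inhibition is given as GI50. TGI is the concentration that stops growth completely.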

Legend:
Test in all cases: growth of human tumour cells (NCI), 48 h
HL-60(TB) leukemia = test system: HL-60(TB) leukemia
K-562 leukemia = test system: K-562 leukemia
M14 melanoma = test system: M14 melanoma
MDA-MB-231 breast = test system: MDA-MB-231 breast
NCI-H226 lung = test system: NCI-H226 lung
OVCAR-3 ovarian = test system: OVCAR-3 ovarian
SK-MEL-5 melanoma = test system: SK-MEL-5 melanoma
SNB-19 CNS = test system: SNB-19 CNS
SR leukemia = test system: SR leukemia
UACC-62 melanoma = test system: UACC-62 melanoma

| Compound | TGI (HL-60(TB) leukemia) [µM] | TGI (K-562 leukemia) | TGI (M14 melanoma) | TGI (MDA-MB-231 breast) [µM] | TGI (NCI-H226 lung) | TGI (OVCAR-3 ovarian) | TGI (SK-MEL-5 melanoma) [µM] | TGI (SNB-19 CNS) [µM] | TGI (SR leukemia) [µM] | TGI (UACC-62 melanoma) | GI50 (HL-60(TB) leukemia) [µM] | GI50 (NCI-H226 lung) [µM] | GI50 (OVCAR-3 ovarian) [µM] | GI50 (SK-MEL-5 melanoma) [µM] | GI50 (UACC-62 melanoma) [µM] |
| --- | --- | --- | --- | --- | --- | --- | --- | --- | --- | --- | --- | --- | --- | --- | --- |
| C1CN(C23OC4(N5CCOCC5)C5C6CC(C7C6C4C72)C53)CCO1 (stereo not drawn) | > 100 | > 100 µM | > 100 µM | > 100 | > 100 µM | > 100 µM | > 100 | > 100 | > 100 | > 100 µM |  |  |  |  |  |
| CCOC(=O)C1C2C1C1C(C(=O)OCC)C21 (stereo not drawn) | > 100 | > 100 µM | > 100 µM | > 100 | > 100 µM | > 100 µM | > 100 | > 100 | > 100 | > 100 µM |  |  |  |  |  |
| O=C(O)c1cc2c(cc1CC(Cc1ccccc1)C(=O)O)CCC2 (stereo not drawn) | > 100 | > 100 µM | > 100 µM | > 100 | > 100 µM | > 100 µM | > 100 | > 100 | > 100 |  |  |  |  |  |  |
| Oc1cc(Br)cc2cc(Br)cnc12 | 0.654 | 94.2 µM | 29.2 µM | 88.2 | 86.5 µM |  | 31.7 | > 100 | 11 | 5.88 µM |  |  |  |  |  |
| OCC(CO)CC1COc2ccccc2O1 (stereo not drawn) | > 10 | > 10 µM | > 10 µM | > 10 | > 10 µM | > 10 µM | > 10 | > 10 | > 10 | > 10 µM |  |  |  |  |  |
| CC(C)(CN1CCCCC1)C(=O)CC(SCCS(=O)(=O)O)c1ccc(Cl)c(Cl)c1 (stereo not drawn) | 5.63 |  | 3.8 µM | 4.82 | 39.1 µM | 6.97 µM | 21.1 | 23.1 | 6.38 | 10.1 µM |  |  |  |  |  |
| Cc1ccc2c(=O)c3c(O)c4c(cc3n(C)c2c1)OC(C)(C)C=C4 | > 10 | > 10 µM | > 10 µM | > 10 | > 10 µM | > 10 µM | > 10 | > 10 | > 10 | > 10 µM |  |  |  |  |  |
| CCCCCCCCCCCOCCC1C(C(C)OCCN2CCCC2)OC2OC(C)(C)OC21 (stereo not drawn) | 3.36 |  | 1.01 µM | 3.97 | 24.5 µM | 12.3 µM | 3.22 | 13.7 | 1.83 | 3.28 µM |  |  |  |  |  |
| COc1ccc(N2C(=O)CSC2c2cc(OC)c(OC)c(OC)c2)cc1 (stereo not drawn) | 69.8 | > 100 µM | 57.8 µM | 78.1 | > 100 µM | 64.8 µM | 87.2 | 80.8 | 51.3 | 20.9 µM |  |  |  |  |  |
| O/N=C1/CCCCC1NO (stereo not drawn) | > 100 | > 100 µM | > 100 µM | > 100 | > 100 µM | > 100 µM | > 100 | > 100 | > 100 | > 100 µM |  |  |  |  |  |
| COc1cc(/C=C/C=C2\CC(C)C/C(=C\C=C\c3ccc(O)c(OC)c3)C2=O)ccc1O (stereo not drawn) | 33.8 | > 100 µM | 46.9 µM | 32.4 | 28 µM | 31.1 µM | 37.6 | 96.2 | 91.4 | 26.7 µM |  |  |  |  |  |
| Cc1nc2ccccc2n1CCc1nc2ccccc2[nH]1 | > 100 | > 100 µM | > 100 µM | > 100 | > 100 µM | > 100 µM | > 100 | > 100 | > 100 | > 100 µM |  |  |  |  |  |
| COc1ccc(/C=C(\C#N)c2nc(-c3cc4ccccc4oc3=O)cs2)cc1 | > 100 | > 100 µM | 86 µM | 31 | > 100 µM |  | > 100 | 34.9 | > 100 | 49.3 µM |  |  |  |  |  |
| Cn1cnc([N+](=O)[O-])c1Sc1nncc2[nH]cnc12 | > 100 | > 100 µM | > 100 µM | > 100 | > 100 µM | > 100 µM | > 100 | > 100 | > 100 | > 100 µM |  |  |  |  |  |
| CC(=O)Oc1ccc(-c2c(OC(C)=O)c(OC(C)=O)c(-c3ccc(OC(C)=O)c(OC(C)=O)c3)c(OC(C)=O)c2OC(C)=O)cc1 | 43.7 | 43.5 µM | 33.7 µM | 35.4 | 35.5 µM | 30 µM | 25.5 | 32.6 | 49.7 | 33.7 µM |  |  |  |  |  |
| Cc1nc(-c2ccc(Cl)cc2)cn2c1nc1ccccc12 | > 31.6 | > 100 µM | > 100 µM | > 100 | > 100 µM | > 100 µM | > 100 | > 100 | > 100 | > 100 µM |  |  |  |  |  |
| CCn1c2ccccc2c2cc(NC(=O)c3c(C)[nH]c(=O)[nH]c3=S)ccc21 | > 100 | > 100 µM | 82.2 µM | 58.1 | > 100 µM | > 100 µM | > 100 | > 100 | > 100 | > 100 µM |  |  |  |  |  |

| Compound | TGI (HL-60(TB) leukemia) [µM] | TGI (K-562 leukemia) | TGI (M14 melanoma) | TGI (MDA-MB-231 breast) [µM] | TGI (NCI-H226 lung) | TGI (OVCAR-3 ovarian) | TGI (SK-MEL-5 melanoma) [µM] | TGI (SNB-19 CNS) [µM] | TGI (SR leukemia) [µM] | TGI (UACC-62 melanoma) | GI50 (HL-60(TB) leukemia) [µM] | GI50 (NCI-H226 lung) [µM] | GI50 (OVCAR-3 ovarian) [µM] | GI50 (SK-MEL-5 melanoma) [µM] | GI50 (UACC-62 melanoma) [µM] |
| --- | --- | --- | --- | --- | --- | --- | --- | --- | --- | --- | --- | --- | --- | --- | --- |
| CCCCN=C(OC1C=CCCC1)SC (stereo not drawn) | > 100 | > 100 µM | > 100 µM | > 100 | > 100 µM | > 100 µM | > 100 | > 100 | > 100 | > 100 µM |  |  |  |  |  |
| Cc1cc2nnn(C3CCCO3)c2cc1C (stereo not drawn) | > 100 | > 100 µM | > 100 µM | > 100 | > 100 µM | > 100 µM | > 100 |  | > 100 | > 100 µM |  |  |  |  |  |
| CC(C)(C)OC(=O)N[C@@H](Cc1ccccc1)C(=O)N1CC[C@@H](C(=O)N2[C@H]3CC4CC[C@@]3(CS2(=O)=O)C4(C)C)N1 | > 100 | > 100 µM | > 100 µM | > 100 | > 100 µM | > 100 µM | 75 | > 100 | > 100 | > 100 µM |  |  |  |  |  |
| Nc1ncc(Cc2nn3c(COc4ccc(Cl)cc4)nnc3s2)s1 | > 100 | > 100 µM | > 100 µM | > 100 | > 100 µM | > 100 µM | > 100 | > 100 | > 100 | > 100 µM |  |  |  |  |  |
| C=C1C(=O)O[C@H]2[C@@H](O)[C@H](C)CCC/C(C)=C/CC[C@@]3(C)O[C@@H]3C[C@@H]12 | > 27.4 | > 100 µM | 18.4 µM | 31.7 | 3.34 µM | 31.1 µM | 28.1 | 37.5 | 14.7 | 22.6 µM |  |  |  |  |  |
| Nc1ncnc2c(C3OC(CO)C(O)C3O)c[nH]c12 (stereo not drawn) |  | 0.116 µM and 0.0193 µM | 0.336 µM and 0.225 µM | > 100 | 0.271 µM and 0.159 µM | 0.0342 µM and 0.124 µM |  | 8.69 | 0.272 | 0.0496 µM and 0.0377 µM | 0.000721 | 0.0189 | 0.0116 | 0.0187 | 0.0101 |
| CC(C)=CCC/C(C)=C/CCC1(C)C2COC(=O)C21 (stereo not drawn) | 46.4 | 49.2 µM |  | > 100 | > 100 µM | > 100 µM | 91.7 | > 100 | > 100 | > 100 µM |  |  |  |  |  |
| Cn1c(=O)c2[nH]cnc2n(C)c1=O | > 100 | > 100 µM | > 100 µM | > 100 | > 100 µM | > 100 µM | > 100 |  | > 100 |  |  |  |  |  |  |
| O=C(NC(Cc1c[nH]c2ccccc12)C(=O)O)/C(=C/c1ccccc1)NC(=O)c1ccccc1 (stereo not drawn) | > 100 | > 100 µM | > 100 µM | > 100 | > 100 µM | > 100 µM | > 100 | > 100 | > 100 | > 100 µM |  |  |  |  |  |
| CCOC(=O)c1c(C)n(CCN2CCN(C)CC2)c2ccc(OC)cc12 | 58 | 45.8 µM | 30.8 µM | > 100 | 72 µM | > 100 µM | 30.8 | > 100 | 46.3 | 30.7 µM |  |  |  |  |  |
| CC(CN(C)C)C(O)(c1ccccc1)c1ccccc1 (stereo not drawn) | > 100 | > 100 µM | > 100 µM | > 100 | > 100 µM | > 100 µM | > 100 | > 100 | > 100 | > 100 µM |  |  |  |  |  |
| C=C(Cl)C(=C)CCC(Cl)C(C)(C)Cl (stereo not drawn) | > 100 | > 100 µM | > 100 µM | > 100 | > 100 µM | > 100 µM | > 100 | > 100 | > 100 | > 100 µM |  |  |  |  |  |
| Cc1cccc(/C=N/NC(=S)NC(C)(C)C)n1 | > 100 | > 100 µM | > 100 µM | > 100 | > 100 µM | > 100 µM | > 100 | > 100 | > 100 | > 100 µM |  |  |  |  |  |
| CCCNC(=O)Cn1c(-c2ccccc2)cc2ccccc21 | > 100 | > 100 µM | > 100 µM | > 100 | > 100 µM | > 100 µM | > 100 | > 100 | > 100 | > 100 µM |  |  |  |  |  |
| CNc1ccc([N+](=O)[O-])cc1C(=O)N1CCC[C@H]1CO | > 100 | > 100 µM | > 100 µM | > 100 | > 100 µM |  | > 100 | > 100 | > 100 | > 100 µM |  |  |  |  |  |
| CCSc1nn(-c2c3ccccc3nc3ccccc23)c(=S)s1 | > 100 | > 100 µM | > 100 µM | > 100 | > 100 µM | > 100 µM | > 100 | > 100 | > 100 | > 100 µM |  |  |  |  |  |
